From PubChem BioAssay AID463206 (Broad Institute, 2010)
Calls of active or inactive are those of the source.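 Rule for the calls: active = caspase luminescence falls with dose and the half-maximal concentration AC50 from the fitted curve is at or below a set limit; inconclusive = flat fit at 30 to 70% signal loss, or invalid fit; inactive = AC50 above the limit, or signal rises instead.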

System: INS-1E cytokine-induced caspase-3/7, Caspase-Glo luminescence, 48 h
Assay: inhibitors of cytokine-induced caspase-3/7 activity, dose response, orthogonal assay for beta-cell apoptosis protection project, INS-1E rat cells, luminescence (AID 463206)

Compound | AC50
CCOC(=O)c1cnc(-n2nc(C)cc2C)nc1Nc1ccc(O)cc1 | > 26 µM (inactive)
C/C(=N\NC(=O)c1nnn(-c2nonc2N)c1CN1CCc2ccccc21)c1ccccc1O | > 26 µM (inactive)
c1cc(-c2noc(CC3CCCCC3)n2)ccn1 | > 26 µM (inactive)
O=C(N=Nc1c(O)n(Cc2ccccc2)c2ccccc12)c1cc2ccccc2cc1O | > 26 µM (inactive)
CCc1nnc(NC(=O)c2cccc(C(=O)Nc3nnc(CC)s3)n2)s1 | > 26 µM (inactive)
Cc1ccc(-c2nn(-c3ccccc3)cc2/C=C/C(=O)Nc2cccc(S(N)(=O)=O)c2)cc1 | > 26 µM (inactive)
CCOc1ccc(C(=O)N/N=C(\c2ccccc2)c2ccccn2)cc1 | > 26 µM (inactive)
O=S(=O)(/C(=C/c1ccc(C(F)(F)F)cc1)c1nc2ccccc2[nH]1)c1ccccc1 | > 26 µM (inactive)
c1ccc(-c2nc(NCc3ccco3)c3ccccc3n2)nc1 | > 26 µM (inactive)
CC(C)(C)c1ccc(C2CC2C(=O)N/N=C\c2ccc[nH]2)cc1 (stereo not drawn) | > 26 µM (inactive)
Oc1cccc(C(Nc2nccs2)c2ccc3cccnc3c2O)c1 (stereo not drawn) | > 26 µM (inactive)
CCN1c2ccccc2N(C)C1(C)c1ccccc1 (stereo not drawn) | > 26 µM (inactive)
O=C(CCSc1nc2ccccc2s1)N/N=C/c1c(O)ccc2ccccc12 | > 26 µM (inactive)
CN1/C(=C\P(=O)(N(C)C)N(C)C)C(C)(C)c2ccccc21 | > 26 µM (inactive)
CCCCCCC(=O)N1C/C=C\C(c2ccc(OC)cc2)N(Cc2ccc(F)cc2)C(=O)[C@H]1Cc1ccccc1 (stereo partly drawn) | > 26 µM (inactive)
Cc1ncc(CO)c(/C=N/Nc2ccc(C(F)(F)F)cn2)c1O | > 26 µM (inactive)
C/C(=N\N1C(=O)c2ccccc2NC1c1ccccc1)c1ccccc1O (stereo not drawn) | > 26 µM (inactive)
COc1ccc(CC2(CO)CCN(CC3=Cc4cc(Cl)ccc4OC3)CC2)cc1 | > 26 µM (inactive)
Cc1oc2c(c1C(=O)c1ccccc1)C(=O)C(=O)c1ccccc1-2 | > 26 µM (inactive)
CN(C)C1CCN(Cc2cc(COCc3ccccc3)c3cccnc3c2O)C1 (stereo not drawn) | > 26 µM (inactive)
Cc1ccc2nc(-c3ccc(-c4cccc(Cl)c4)cc3)c(NCc3ccccc3)n2c1 | > 26 µM (inactive)
O=[N+]([O-])c1ccc(S(=O)(=O)c2ccccc2)nc1 | > 26 µM (inactive)
CN(C)CCCNc1c2ccccc2nc2ccccc12 | > 26 µM (inactive)
COc1ccc([N+](=O)[O-])c(S(=O)(=O)c2ccccc2)n1 | > 26 µM (inactive)

Compound | AC50
COc1cnc(-c2ccccn2)nc1Sc1ccc(C)cc1 | > 26 µM (inactive)
CC(Oc1cccc(Cl)c1)C(=O)Nc1cc(S(=O)(=O)N2CCOCC2)ccc1N1CCCCC1 (stereo not drawn) | > 26 µM (inactive)
CC1(C)C[C@@H]2C[C@@](C)(CN2C(=O)c2cc(COc3cccc(C(F)(F)F)c3)on2)C1 | > 12 µM (inactive)
COc1ccc(-c2nc(-c3ccccn3)no2)cc1 | > 26 µM (inactive)
O=C(N/N=C\c1cc(Cl)ccc1O)c1ccc(S(=O)(=O)N2CCCCC2)cc1 | > 26 µM (inactive)
Cc1ccc2c(c1)N(C(=O)CCC(=O)NCCCN1CCC(Cc3ccccc3)CC1)CCO2 | 10.8 µM
COc1ccc(-c2c[n+]3c(n2-c2ccc(C)cc2)CCCCC3)cc1 | > 26 µM (inactive)
CCC(C)(C)c1ccc(OCCCC[n+]2ccccc2)c(C(C)(C)CC)c1 | > 26 µM (inactive)
CCOc1ccc(-c2c[n+]3c(n2-c2ccccc2)CCCCC3)cc1 | > 26 µM (inactive)
Nc1ccc2c(c1)C(=O)C(=O)c1ccccc1-2 | > 26 µM (inactive)
CCCc1sc(N/N=C/c2ccccn2)nc1-c1ccc(F)cc1 | > 26 µM (inactive)
CCCCn1c(/C=N/Nc2nc3ccccc3[nH]2)nc2ccccc21 | > 26 µM (inactive)
COc1cnc(-c2ccccn2)nc1Oc1ccc(C(C)(C)C)cc1 | > 26 µM (inactive)
Cc1ccc2nc(C)c(CN3CCN(c4ccc([N+](=O)[O-])cc4Cl)CC3)n2c1 | > 26 µM (inactive)
Cc1cc(C(C)(C)C)cc(C)c1C[n+]1ccc2ccccc2c1 | > 26 µM (inactive)
CC1=CC2/C=C(\C)CCC(O)C(O)/C=C/C(=O)C23C(=O)NC(CC(C)C)C3C1C (stereo not drawn) | > 26 µM (inactive)
O=C(N/N=C/c1sc(N2CCOCC2)nc1-c1ccccc1)c1cccc(S(=O)(=O)N2CCCC2)c1 | > 26 µM (inactive)
COc1cccc(/C=N/Nc2ncnc(Cl)c2N)c1O | > 26 µM (inactive)
CC(C)c1ccccc1-n1c(SCC(=O)N2CCc3ccccc3C2)nc2ccccc2c1=O | > 26 µM (inactive)
Cc1cc(C(=O)N/N=C/c2cc(Br)ccc2OC(=O)c2ccccc2)n[nH]1 | > 26 µM (inactive)
O=C(NC(Nc1nc2ccc([N+](=O)[O-])cc2s1)(C(F)(F)F)C(F)(F)F)c1cccnc1 | > 26 µM (inactive)
COc1ccc2cc3[n+](cc2c1OC)CCc1cc2c(cc1-3)OCO2 | > 26 µM (inactive)
Cc1ccnc2c1ccc1c(C)ccnc12 | > 26 µM (inactive)
Oc1cccc2ccc(Nc3ccccn3)nc12 | > 26 µM (inactive)

Compound | AC50
O=C(CCCc1nc(-c2ccc(Cl)cc2)no1)NC1CCCC1 | > 12 µM (inactive)
OC(c1cc(-c2ccc(Cl)cc2)nc2ccccc12)C1CCCCN1 (stereo not drawn) | > 26 µM (inactive)
NC(N)=NC(N)=Nc1ccc(SC(F)(F)F)cc1 | > 26 µM (inactive)
CCCCCCCCCCOC(=O)Cn1c(COc2cccc(OC)c2)[n+](C)c2ccccc21 | > 26 µM (inactive)
O=C(/C(=C/c1cccc(Cl)c1)c1nc2ccccc2[nH]1)c1ccccc1 | > 26 µM (inactive)
Cc1ccc(C(=O)N2N=C(c3ccc(Br)cc3)CC2c2ccccc2O)cc1 (stereo not drawn) | > 26 µM (inactive)
COc1ccc(NS(=O)(=O)c2cccc(NC(=O)c3ccc(S(=O)(=O)N4CCCCCC4)cc3)c2)cc1 | > 26 µM (inactive)
COc1ccc(OC)c(NC(=O)CSc2ncnc3c2cnn3-c2ccccc2Cl)c1 | > 26 µM (inactive)
CC(C)C[C@H](NC(=O)c1nc[nH]c1C(=O)N[C@@H](CC(C)C)C(=O)OC(C)(C)C)C(=O)OCc1ccccc1 | > 26 µM (inactive)
COc1ccc(CCNc2ccc(C(CC(N)=O)NC(=O)c3ccc(Br)cc3)cc2[N+](=O)[O-])cc1 (stereo not drawn) | > 26 µM (inactive)
Cc1ccc(NS(=O)(=O)c2ccc(NC(=O)CN(c3cc([N+](=O)[O-])ccc3C)S(C)(=O)=O)cc2)c(C)c1 | > 26 µM (inactive)
COC(=O)[C@H](CC(C)C)N(Cc1ccccc1)S(=O)(=O)N(Cc1ccc(OC)cc1)[C@@H](CC(C)C)C(=O)OC | > 26 µM (inactive)
CCCCC1CCC(C(=O)N(CC(C)C)c2c(N)n(Cc3ccccc3)c(=O)[nH]c2=O)CC1 (stereo not drawn) | > 26 µM (inactive)
COc1ccc(C2CC(c3ccc4ccccc4c3OC(C)=O)=NN2C(C)=O)cc1 (stereo not drawn) | > 26 µM (inactive)
CCOc1ccc(CN2CCN(Cc3c[nH]c4ccccc34)CC2)cc1 | > 26 µM (inactive)
CN(C)C(=O)c1ccc(NC(=O)c2cccnc2)cc1 | > 26 µM (inactive)
CCc1cc(CNC(=O)c2ccc3nc(Cc4ccc(OC)c(OC)c4)oc3c2)on1 | > 26 µM (inactive)
CCOC(=O)c1c(NC(=O)c2cc(-c3ccc(Cl)s3)nc3ccccc23)sc(C(N)=O)c1C | > 26 µM (inactive)
O=C(Nc1ccc(Cl)c(Cl)c1)Nc1nnc(CC2=CCCCC2)s1 | > 26 µM (inactive)
Cc1cc(N/N=C/c2c(O)ccc3ccccc23)nc(-c2ccccc2O)n1 | > 26 µM (inactive)
Cc1cccc(/C=N/NC(=O)c2c(-c3ccccc3)noc2C)c1O | > 26 µM (inactive)
O=C(Nc1cc(Sc2ccccn2)cc([N+](=O)[O-])c1)c1ccc(Cl)cc1 | > 26 µM (inactive)
CC1=NN(c2nc(-c3ccc(C)cc3)cs2)C(=O)C1N=Nc1ccc(C(N)=O)cc1 (stereo not drawn) | > 26 µM (inactive)
c1ccc(CN2CCN(Cc3c[nH]c4ccccc34)CC2)cc1 | > 26 µM (inactive)

Compound | AC50
Cc1cc(-c2ccccc2)cc(-c2ccccc2)[n+]1CCc1ccccc1 | > 26 µM (inactive)
O=C(Nc1ccc(OC(F)(F)F)cc1)Nc1cccc([N+](=O)[O-])c1 | > 26 µM (inactive)
CCCNC(=O)c1c(N)n(-c2cccc(OC)c2)c2nc3ccccc3nc12 | > 26 µM (inactive)
O=C(O)CCCC(=O)Nc1ccc(C(=O)NCc2cccnc2)cc1 | > 26 µM (inactive)
Oc1cccc(/C=N/NC(=S)Nc2cccnc2)c1O | > 26 µM (inactive)
Oc1c(CN2CCOCC2)cc(COCc2ccccc2)c2cccnc12 | > 26 µM (inactive)
C/C(=N\NC(=O)c1ccccc1OCc1ccc(F)cc1)c1ccccn1 | > 26 µM (inactive)
CC1CCc2c(sc3nc(C4CC4)nc(N4CCN(C(=O)c5ccco5)CC4)c23)C1 (stereo not drawn) | > 26 µM (inactive)
O=C1/C(=C/c2ccc(N3CCOCC3)o2)SC(=Nc2ccccc2)N1CCc1c[nH]c2ccccc12 | > 26 µM (inactive)
CN1/C(=C\C(=S)NC(=O)c2ccccc2Cl)C(C)(C)c2ccccc21 | > 26 µM (inactive)
Cc1cc(C)n(-c2nc(NCCN(C)C)c3c4c(sc3n2)CCCC4)n1 | 13.1 µM
Cn1cc(/C=C/c2cc[n+](C)cc2)c2cc(Cl)ccc21 | > 26 µM (inactive)
CCCCCCCCCCCCCCCC[N+](C)(C)CCN(Cc1ccc(OC)cc1)c1ncccn1 | > 26 µM (inactive)
O=C(NNC(=O)c1ccccc1O)c1ccc(Cl)c(S(=O)(=O)N2CCc3ccccc32)c1 | 27.2 µM
O=c1c2c3c(sc2n(CCN2CCCCC2)c(=O)n1Cc1ccco1)CCCCC3 | 25.4 µM
C/C(=N\NC(=O)c1ccc(Cl)c(Cl)c1)c1ccccn1 | > 26 µM (inactive)
C#CCOCCOCCOCCNc1nc(N2CCN(C(=O)CCCCCCCCCCNC(=O)[C@H](CCCCN)n3cc(C)nn3)CC2)nc(N2CCN(C(=O)CCCCCCCCCCNC(=O)[C@@H]([C@H](C)CC)n3cc(CCCCCN)nn3)CC2)n1 | > 26 µM (inactive)
CN1c2ccccc2N(C)C1(C)c1ccccc1 | > 26 µM (inactive)
CCN(CC)c1ccc(/C=N/NC(=O)c2c(Cl)cnn2C)c(O)c1 | > 26 µM (inactive)
CCCCC(=O)NC(c1ccco1)c1cc(Cl)c2cccnc2c1O (stereo not drawn) | > 26 µM (inactive)
Cc1ccccc1-c1cc(C(=O)Nc2sc(C)c(C)c2C(N)=O)c2ccccc2n1 | > 26 µM (inactive)
